# Data published in PubChem BioAssay (NCI).
#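 Five concentrations, 48 hours, 96-well plates. Here, GI50 denotes the concentration required for 50% inhibition of growth. TGI: concentration producing complete growth inhibition.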
# Assays:
# Test in all cases: growth of human tumour cells (NCI), 48 h
# HT29 colon = system: HT29 colon
# SK-OV-3 ovarian = system: SK-OV-3 ovarian
# OVCAR-4 ovarian = system: OVCAR-4 ovarian
# NCI/ADR-RES ovarian = system: NCI/ADR-RES ovarian
# SF-268 CNS = system: SF-268 CNS
# COLO 205 colon = system: COLO 205 colon
# HCC-2998 colon = system: HCC-2998 colon
# BT-549 breast = system: BT-549 breast
# HCT-116 colon = system: HCT-116 colon
# A549 NSCLC = system: A549 NSCLC
# U251 CNS = system: U251 CNS
# A498 renal = system: A498 renal
# SK-MEL-5 melanoma = system: SK-MEL-5 melanoma
# SR leukemia = system: SR leukemia
# UO-31 renal = system: UO-31 renal
# LOX IMVI melanoma = system: LOX IMVI melanoma
# SNB-19 CNS = system: SNB-19 CNS
# MALME-3M melanoma = system: MALME-3M melanoma
# MOLT-4 leukemia = system: MOLT-4 leukemia
# UACC-257 melanoma = system: UACC-257 melanoma
# KM12 colon = system: KM12 colon
# HL-60(TB) leukemia = system: HL-60(TB) leukemia
# RXF 393 renal = system: RXF 393 renal
# ACHN renal = system: ACHN renal
# DU-145 prostate = system: DU-145 prostate
# CCRF-CEM leukemia = system: CCRF-CEM leukemia
# IGROV1 ovarian = system: IGROV1 ovarian
# NCI-H226 lung = system: NCI-H226 lung
# HCT-15 colon = system: HCT-15 colon
# MDA-MB-231 breast = system: MDA-MB-231 breast
# EKVX NSCLC = system: EKVX NSCLC
# SF-539 CNS = system: SF-539 CNS
# RPMI-8226 leukemia = system: RPMI-8226 leukemia
# SW-620 colon = system: SW-620 colon
# NCI-H23 lung = system: NCI-H23 lung
# MDA-MB-435 = system: MDA-MB-435
# UACC-62 melanoma = system: UACC-62 melanoma
# SNB-75 CNS = system: SNB-75 CNS
# PC-3 prostate = system: PC-3 prostate
# HS 578T breast = system: HS 578T breast
# NCI-H522 lung = system: NCI-H522 lung
# SK-MEL-2 melanoma = system: SK-MEL-2 melanoma
# SN12C renal = system: SN12C renal
# OVCAR-8 ovarian = system: OVCAR-8 ovarian
# MCF7 breast = system: MCF7 breast
# NCI-H460 lung = system: NCI-H460 lung
# K-562 leukemia = system: K-562 leukemia
# T-47D breast = system: T-47D breast
# 786-0 renal = system: 786-0 renal
# OVCAR-5 ovarian = system: OVCAR-5 ovarian
# CAKI-1 renal = system: CAKI-1 renal
# HOP-62 NSCLC = system: HOP-62 NSCLC
# SK-MEL-28 melanoma = system: SK-MEL-28 melanoma
# HOP-92 NSCLC = system: HOP-92 NSCLC
# TK-10 renal = system: TK-10 renal
# OVCAR-3 ovarian = system: OVCAR-3 ovarian
# SF-295 CNS = system: SF-295 CNS
structure (smiles),measurement,setting,value
CCC(=C(c1ccc(OCCN(C)C)cc1)c1ccc(OCCN(C)C)cc1)c1ccc(Cl)cc1,GI50,HT29 colon,0.427 µM
same,TGI,HT29 colon,1.11 µM
same,GI50,SK-OV-3 ovarian,4.26 µM
same,TGI,SK-OV-3 ovarian,8.08 µM
same,GI50,OVCAR-4 ovarian,3.39 µM
same,TGI,OVCAR-4 ovarian,7.36 µM
same,GI50,NCI/ADR-RES ovarian,3.22 µM
same,TGI,NCI/ADR-RES ovarian,6.68 µM
same,GI50,SF-268 CNS,3.54 µM
same,TGI,SF-268 CNS,7.48 µM
same,GI50,COLO 205 colon,1.14 µM
same,TGI,COLO 205 colon,4.77 µM
same,GI50,HCC-2998 colon,2.04 µM
same,TGI,HCC-2998 colon,5.73 µM
same,GI50,BT-549 breast,4.29 µM
same,TGI,BT-549 breast,8.38 µM
same,GI50,HCT-116 colon,2.58 µM
same,TGI,HCT-116 colon,6.24 µM
same,GI50,A549 NSCLC,2.56 µM
same,TGI,A549 NSCLC,6.32 µM
same,GI50,U251 CNS,0.67 µM
same,TGI,U251 CNS,2.29 µM
same,GI50,A498 renal,3.58 µM
same,TGI,A498 renal,7.07 µM
same,GI50,SK-MEL-5 melanoma,3.99 µM
same,TGI,SK-MEL-5 melanoma,7.49 µM
same,GI50,SR leukemia,0.659 µM
same,TGI,SR leukemia,4.74 µM
same,GI50,UO-31 renal,3.23 µM
same,TGI,UO-31 renal,6.6 µM
same,GI50,LOX IMVI melanoma,0.43 µM
same,TGI,LOX IMVI melanoma,0.848 µM
same,GI50,SNB-19 CNS,2.84 µM
same,TGI,SNB-19 CNS,6.29 µM
same,GI50,MALME-3M melanoma,0.855 µM
same,TGI,MALME-3M melanoma,3.3 µM
same,GI50,MOLT-4 leukemia,0.745 µM
same,TGI,MOLT-4 leukemia,2.41 µM
same,GI50,UACC-257 melanoma,3.7 µM
same,TGI,UACC-257 melanoma,7.39 µM
same,GI50,KM12 colon,2.54 µM
same,TGI,KM12 colon,5.67 µM
same,GI50,HL-60(TB) leukemia,0.522 µM
same,TGI,HL-60(TB) leukemia,1.23 µM
same,GI50,RXF 393 renal,0.897 µM
same,TGI,RXF 393 renal,4.15 µM
same,GI50,ACHN renal,1.31 µM
same,TGI,ACHN renal,4.33 µM
same,GI50,DU-145 prostate,3.11 µM
same,TGI,DU-145 prostate,6.67 µM
same,GI50,CCRF-CEM leukemia,0.609 µM
same,TGI,CCRF-CEM leukemia,1.79 µM
same,GI50,IGROV1 ovarian,2.17 µM
same,TGI,IGROV1 ovarian,5.6 µM
same,GI50,NCI-H226 lung,4.12 µM
same,TGI,NCI-H226 lung,8.41 µM
same,GI50,HCT-15 colon,0.77 µM
same,TGI,HCT-15 colon,2.67 µM
same,GI50,MDA-MB-231 breast,2.42 µM
same,TGI,MDA-MB-231 breast,5.75 µM
same,GI50,EKVX NSCLC,3.85 µM
same,TGI,EKVX NSCLC,7.67 µM
same,GI50,SF-539 CNS,2.75 µM
same,TGI,SF-539 CNS,6.1 µM
same,GI50,RPMI-8226 leukemia,0.598 µM
same,TGI,RPMI-8226 leukemia,1.46 µM
same,GI50,SW-620 colon,0.549 µM
same,TGI,SW-620 colon,1.22 µM
same,GI50,NCI-H23 lung,3.65 µM
same,TGI,NCI-H23 lung,7.26 µM
same,GI50,MDA-MB-435,0.575 µM
same,TGI,MDA-MB-435,1.41 µM
same,GI50,UACC-62 melanoma,0.492 µM
same,TGI,UACC-62 melanoma,1.12 µM
same,GI50,SNB-75 CNS,3.32 µM
same,TGI,SNB-75 CNS,7.53 µM
same,GI50,PC-3 prostate,1.26 µM
same,TGI,PC-3 prostate,4.56 µM
same,GI50,HS 578T breast,3.48 µM
same,TGI,HS 578T breast,7.79 µM
same,GI50,NCI-H522 lung,1.96 µM
same,TGI,NCI-H522 lung,5.77 µM
same,GI50,SK-MEL-2 melanoma,4.48 µM
same,TGI,SK-MEL-2 melanoma,8.49 µM
same,GI50,SN12C renal,3.76 µM
same,TGI,SN12C renal,7.52 µM
same,GI50,OVCAR-8 ovarian,3.21 µM
same,TGI,OVCAR-8 ovarian,6.96 µM
same,GI50,MCF7 breast,0.522 µM
same,TGI,MCF7 breast,1.67 µM
same,GI50,NCI-H460 lung,2.67 µM
same,TGI,NCI-H460 lung,6.03 µM
same,GI50,K-562 leukemia,0.541 µM
same,TGI,K-562 leukemia,1.77 µM
same,GI50,T-47D breast,3.17 µM
same,TGI,T-47D breast,8.03 µM
same,GI50,786-0 renal,3.7 µM
same,TGI,786-0 renal,7.72 µM
same,GI50,OVCAR-5 ovarian,3.91 µM
same,TGI,OVCAR-5 ovarian,7.56 µM
same,GI50,CAKI-1 renal,3.17 µM
same,TGI,CAKI-1 renal,6.48 µM
same,GI50,HOP-62 NSCLC,3.67 µM
same,TGI,HOP-62 NSCLC,7.95 µM
same,GI50,SK-MEL-28 melanoma,0.462 µM
same,TGI,SK-MEL-28 melanoma,0.888 µM
same,GI50,HOP-92 NSCLC,0.736 µM
same,TGI,HOP-92 NSCLC,4.01 µM
same,GI50,TK-10 renal,4.05 µM
same,TGI,TK-10 renal,7.75 µM
same,GI50,OVCAR-3 ovarian,0.804 µM
same,TGI,OVCAR-3 ovarian,2.74 µM
same,GI50,SF-295 CNS,3.09 µM
same,TGI,SF-295 CNS,6.49 µM
